According to article PMC5218480 (PLoS ONE, 2017):

System: MV-4-11 cells
Assay: Gene expression microarray analysis (Affymetrix PrimeView) and GSEA
Format: cell-based, human
Set-up: RFU PODN (11730768_x_at) / Fold change /veh PODN (11730768_x_at) / RFU LINC00158 (11744669_a_at) / Fold change /veh LINC00158 (11744669_a_at) / RFU DUSP10 (11751237_a_at) / Fold change /veh DUSP10 (11751237_a_at) / RFU ID3 (11757404_x_at) / Fold change /veh ID3 (11757404_x_at) / RFU PLEKHG5 (11737974_s_at) / Fold change /veh PLEKHG5 (11737974_s_at) / RFU LRRC4B (11730491_at) / Fold change /veh LRRC4B (11730491_at) / RFU GIMAP4 (11747438_a_at) / Fold change /veh GIMAP4 (11747438_a_at) / RFU KRT8 (11758183_x_at) / Fold change /veh KRT8 (11758183_x_at) / RFU CNN1 (11734310_a_at) / Fold change /veh CNN1 (11734310_a_at) / RFU VPS37D (11726825_at) / Fold change /veh VPS37D (11726825_at) / RFU C10orf10 (11716522_x_at) / Fold change /veh C10orf10 (11716522_x_at) / RFU KIR2DL2 /// KIR2DL4 /// KIR2DL5A /// KIR2DL5B /// KIR2DS1 /// KIR2DS2 /// KIR2DS3 /// KIR2DS4 /// KIR3DL3 /// KIR3DL3 /// KIR3DS1 (11738374_at) / Fold change /veh KIR2DL2 /// KIR2DL4 /// KIR2DL5A /// KIR2DL5B /// KIR2DS1 /// KIR2DS2 /// KIR2DS3 /// KIR2DS4 /// KIR3DL3 /// KIR3DL3 /// KIR3DS1 (11738374_at) / RFU C1QL1 (11718748_at) / Fold change /veh C1QL1 (11718748_at) / RFU TMPRSS4 (11747572_a_at) / Fold change /veh TMPRSS4 (11747572_a_at) / RFU HAMP (11756126_x_at) / Fold change /veh HAMP (11756126_x_at) / RFU RNFT2 (11725882_a_at) / Fold change /veh RNFT2 (11725882_a_at) / RFU NR4A2 (11747474_a_at) / Fold change /veh NR4A2 (11747474_a_at) / RFU ABCC12 (11746883_a_at) / Fold change /veh ABCC12 (11746883_a_at) / RFU TMEM136 (11760407_x_at) / Fold change /veh TMEM136 (11760407_x_at) / RFU CLDN22 /// WWC2 (11732394_at) / Fold change /veh CLDN22 /// WWC2 (11732394_at) / RFU HLA-DPB1 (11760878_x_at) / Fold change /veh HLA-DPB1 (11760878_x_at) / RFU SPINT1 (11716480_a_at) / Fold change /veh SPINT1 (11716480_a_at) / RFU GAP43 (11754022_s_at) / Fold change /veh GAP43 (11754022_s_at) / RFU A4GNT (11735810_at) / Fold change /veh A4GNT (11735810_at) / RFU PRB3 (11715151_x_at) / Fold change /veh PRB3 (11715151_x_at) / RFU TUBB4B (11761932_at) / Fold change /veh TUBB4B (11761932_at) / RFU CAPN14 (11732068_a_at) / Fold change /veh CAPN14 (11732068_a_at) / RFU TMCC2 (11721928_a_at) / Fold change /veh TMCC2 (11721928_a_at) / RFU IRGQ (11745062_a_at) / Fold change /veh IRGQ (11745062_a_at) / RFU FAM174B (11720279_a_at) / Fold change /veh FAM174B (11720279_a_at) / RFU TMPRSS4 (11748680_a_at) / Fold change /veh TMPRSS4 (11748680_a_at) / RFU FAM212B (11763350_a_at) / Fold change /veh FAM212B (11763350_a_at) / RFU PLEKHG5 (11743358_a_at) / Fold change /veh PLEKHG5 (11743358_a_at) / RFU ZSCAN30 (11745921_a_at) / Fold change /veh ZSCAN30 (11745921_a_at) / RFU CMKLR1 (11741424_a_at) / Fold change /veh CMKLR1 (11741424_a_at) / RFU LOC101060620 /// MAPK8IP1 (11723275_at) / Fold change /veh LOC101060620 /// MAPK8IP1 (11723275_at) / RFU SPTSSB (11747773_x_at) / Fold change /veh SPTSSB (11747773_x_at) / RFU PRSS12 (11739890_at) / Fold change /veh PRSS12 (11739890_at) / RFU BIN1 (11741810_x_at) / Fold change /veh BIN1 (11741810_x_at) / RFU WNT11 (11732464_a_at) / Fold change /veh WNT11 (11732464_a_at) / RFU C10orf10 (11716521_a_at) / Fold change /veh C10orf10 (11716521_a_at) / RFU C5orf56 (11738089_at) / Fold change /veh C5orf56 (11738089_at) / RFU CYB561 (11721691_x_at) / Fold change /veh CYB561 (11721691_x_at) / RFU ANKRD19P (11752326_a_at) / Fold change /veh ANKRD19P (11752326_a_at) / RFU OR2T12 /// OR2T33 /// OR2T8 (11738714_s_at) / Fold change /veh OR2T12 /// OR2T33 /// OR2T8 (11738714_s_at) / RFU VCAN (11748164_a_at) / Fold change /veh VCAN (11748164_a_at) / RFU JSRP1 (11732532_at) / Fold change /veh JSRP1 (11732532_at) / RFU KRTAP10-11 (11738290_x_at) / Fold change /veh KRTAP10-11 (11738290_x_at) / RFU MYO3A (11730013_a_at) / Fold change /veh MYO3A (11730013_a_at) / RFU EBF3 (11725865_a_at) / Fold change /veh EBF3 (11725865_a_at) / RFU CAMK2N1 (11719241_x_at) / Fold change /veh CAMK2N1 (11719241_x_at) / RFU C5orf56 (11738088_a_at) / Fold change /veh C5orf56 (11738088_a_at) / RFU OLFML3 (11715873_a_at) / Fold change /veh OLFML3 (11715873_a_at) / RFU LOC100653217 /// NTM (11731650_a_at) / Fold change /veh LOC100653217 /// NTM (11731650_a_at) / RFU MAPK11 (11762145_a_at) / Fold change /veh MAPK11 (11762145_a_at) / RFU FIZ1 (11724087_x_at) / Fold change /veh FIZ1 (11724087_x_at) / RFU OASL (11726364_x_at) / Fold change /veh OASL (11726364_x_at) / RFU SOX15 (11748057_x_at) / Fold change /veh SOX15 (11748057_x_at) / RFU CD79A (11719716_a_at) / Fold change /veh CD79A (11719716_a_at) / RFU HIST1H1D (11736915_at) / Fold change /veh HIST1H1D (11736915_at) / RFU CASKIN2 (11723855_a_at) / Fold change /veh CASKIN2 (11723855_a_at) / RFU LOC730098 (11760151_x_at) / Fold change /veh LOC730098 (11760151_x_at) / RFU OR4N2 (11742367_at) / Fold change /veh OR4N2 (11742367_at) / RFU PRRT2 (11749266_a_at) / Fold change /veh PRRT2 (11749266_a_at) / RFU SNX32 (11753110_a_at) / Fold change /veh SNX32 (11753110_a_at) / RFU CDHR5 (11726645_a_at) / Fold change /veh CDHR5 (11726645_a_at) / RFU RCAN1 (11760418_a_at) / Fold change /veh RCAN1 (11760418_a_at) / RFU FAM167A (11723789_a_at) / Fold change /veh FAM167A (11723789_a_at) / RFU FAM26E (11764081_at) / Fold change /veh FAM26E (11764081_at) / RFU ISYNA1 (11749810_s_at) / Fold change /veh ISYNA1 (11749810_s_at) / RFU ACY1 (11761880_at) / Fold change /veh ACY1 (11761880_at) / RFU 11764098_at / Fold change /veh 11764098_at / RFU SAMD14 (11745864_x_at) / Fold change /veh SAMD14 (11745864_x_at) / RFU NPB (11741838_a_at) / Fold change /veh NPB (11741838_a_at) / RFU TMPRSS6 (11731388_a_at) / Fold change /veh TMPRSS6 (11731388_a_at) / RFU KRTAP10-2 (11738614_at) / Fold change /veh KRTAP10-2 (11738614_at) / RFU ARHGAP8 /// PRR5-ARHGAP8 (11727945_x_at) / Fold change /veh ARHGAP8 /// PRR5-ARHGAP8 (11727945_x_at) / RFU KRTAP5-7 /// NADSYN1 (11734609_at) / Fold change /veh KRTAP5-7 /// NADSYN1 (11734609_at) / RFU RASL12 (11751679_a_at) / Fold change /veh RASL12 (11751679_a_at) / RFU CDKN2B (11736163_a_at) / Fold change /veh CDKN2B (11736163_a_at) / RFU PRF1 (11729649_at) / Fold change /veh PRF1 (11729649_at) / RFU, ZNF638 /// ZNF638-IT1 / Fold change vs veh, ZNF638 /// ZNF638-IT1 / RFU, PANK3 / Fold change vs veh, PANK3 / RFU, SH3YL1 / Fold change vs veh, SH3YL1 / RFU, ZEB2 / Fold change vs veh, ZEB2 / RFU, NRIP1 / Fold change vs veh, NRIP1 / RFU, PTTG1IP / Fold change vs veh, PTTG1IP / RFU, CAPN2 / Fold change vs veh, CAPN2 / RFU, MED14 / Fold change vs veh, MED14 / RFU, SNORA58 / Fold change vs veh, SNORA58 / RFU, C1orf63 / Fold change vs veh, C1orf63 / RFU, LRRFIP1 / Fold change vs veh, LRRFIP1 / RFU, NDUFAF7 / Fold change vs veh, NDUFAF7 / RFU, SLC12A2 / Fold change vs veh, SLC12A2 / RFU, IBTK / Fold change vs veh, IBTK / RFU, ESF1 / Fold change vs veh, ESF1 / Fold change vs veh, TMEM50B / RFU, TAOK1 / Fold change vs veh, TAOK1 / RFU, ACBD3 / Fold change vs veh, ACBD3 / RFU, TMA16 / Fold change vs veh, TMA16 / RFU, RWDD3 / Fold change vs veh, RWDD3 / RFU, BCAT1 / Fold change vs veh, BCAT1 / RFU, EDEM3 / Fold change vs veh, EDEM3 / RFU, TMEM33 / Fold change vs veh, TMEM33 / RFU, WDR75 / Fold change vs veh, WDR75 / RFU, AHCTF1 / Fold change vs veh, AHCTF1 / RFU, TFRC / Fold change vs veh, TFRC / RFU, ZDHHC17 / Fold change vs veh, ZDHHC17 / RFU, NOM1 / Fold change vs veh, NOM1 / RFU, ARL8B / Fold change vs veh, ARL8B / RFU, ZBTB11 / Fold change vs veh, ZBTB11 / RFU, TAMM41 / Fold change vs veh, TAMM41 / RFU, KIAA1704 /// LOC100996395 / Fold change vs veh, KIAA1704 /// LOC100996395 / RFU, ING1 / Fold change vs veh, ING1 / RFU, TRMT61B / Fold change vs veh, TRMT61B / RFU, FUBP3 / Fold change vs veh, FUBP3 / RFU, TP53 / Fold change vs veh, TP53 / RFU, TNKS2 / Fold change vs veh, TNKS2 / RFU, ZFP14 / Fold change vs veh, ZFP14 / RFU, ACTR2 / Fold change vs veh, ACTR2 / RFU, PPP3R1 / Fold change vs veh, PPP3R1 / RFU, PIK3R1 / Fold change vs veh, PIK3R1 / RFU, HNRNPA1 / Fold change vs veh, HNRNPA1 / RFU, RNF170 / Fold change vs veh, RNF170 / RFU, ZNF28 / Fold change vs veh, ZNF28 / RFU, RNGTT / Fold change vs veh, RNGTT / RFU, OGT / Fold change vs veh, OGT / RFU, BRD1 / Fold change vs veh, BRD1 / RFU, MARS / Fold change vs veh, MARS / RFU, ZNF655 / Fold change vs veh, ZNF655 / RFU, FAHD1 / Fold change vs veh, FAHD1 / RFU, BDP1 / Fold change vs veh, BDP1 / RFU, LRRCC1 / Fold change vs veh, LRRCC1 / RFU, ARID1A / Fold change vs veh, ARID1A / RFU, ZNF146 / Fold change vs veh, ZNF146 / RFU, ZNF330 / Fold change vs veh, ZNF330 / RFU, GPN3 / Fold change vs veh, GPN3 / RFU, C9orf123 / Fold change vs veh, C9orf123 / RFU, N4BP2L2 / Fold change vs veh, N4BP2L2 / RFU, ARFIP1 / Fold change vs veh, ARFIP1 / RFU, FAM179B / Fold change vs veh, FAM179B / RFU, BCL10 / Fold change vs veh, BCL10 / RFU, UHRF1BP1L / Fold change vs veh, UHRF1BP1L / RFU, BET1 / Fold change vs veh, BET1 / RFU, CNOT2 / Fold change vs veh, CNOT2 / RFU, ZNF268 / Fold change vs veh, ZNF268 / Fold change vs veh, ZNF507 / RFU, DGCR2 / Fold change vs veh, DGCR2 / RFU, WDSUB1 / Fold change vs veh, WDSUB1 / Fold change vs veh, HSP90B1 /// MIR3652 / RFU, ADSS / Fold change vs veh, ADSS / RFU, GK / Fold change vs veh, GK / RFU, ZNF148 / Fold change vs veh, ZNF148 / RFU, TAF9 / Fold change vs veh, TAF9 / RFU, SLC1A5 / Fold change vs veh, SLC1A5 / RFU, SLMO2 / Fold change vs veh, SLMO2 / RFU, ABCC4 / Fold change vs veh, ABCC4 / RFU, LOC101060439 /// RAP1B / Fold change vs veh, LOC101060439 /// RAP1B / RFU, RFX7 / Fold change vs veh, RFX7 / RFU, GTPBP10 / Fold change vs veh, GTPBP10 / RFU, CNEP1R1 / Fold change vs veh, CNEP1R1 / RFU, BIVM-ERCC5 /// ERCC5 / Fold change vs veh, BIVM-ERCC5 /// ERCC5 / RFU, ILF3 / Fold change vs veh, ILF3 / RFU 11762660_at / Fold change /veh 11762660_at / RFU VCAN (11757783_s_at) / Fold change /veh VCAN (11757783_s_at) / RFU DDX43 (11728927_at) / Fold change /veh DDX43 (11728927_at) / RFU KRT8 (11758188_x_at) / Fold change /veh KRT8 (11758188_x_at) / RFU NKD1 (11759106_at) / Fold change /veh NKD1 (11759106_at) / RFU SRD5A1 (11742802_a_at) / Fold change /veh SRD5A1 (11742802_a_at) / RFU TPSAB1 /// TPSB2 (11721975_s_at) / Fold change /veh TPSAB1 /// TPSB2 (11721975_s_at) / RFU GSTM3 (11746129_a_at) / Fold change /veh GSTM3 (11746129_a_at) / RFU IL23R (11737362_x_at) / Fold change /veh IL23R (11737362_x_at) / RFU TMEM51 (11727254_a_at) / Fold change /veh TMEM51 (11727254_a_at) / RFU PIWIL2 (11732686_x_at) / Fold change /veh PIWIL2 (11732686_x_at) / RFU ORM1 (11744905_x_at) / Fold change /veh ORM1 (11744905_x_at) / RFU CCDC152 (11743942_at) / Fold change /veh CCDC152 (11743942_at) / RFU ECM1 (11717891_a_at) / Fold change /veh ECM1 (11717891_a_at) / RFU IL23R (11748794_a_at) / Fold change /veh IL23R (11748794_a_at) / RFU TNFAIP8L3 (11732012_x_at) / Fold change /veh TNFAIP8L3 (11732012_x_at) / RFU MBOAT4 (11741988_at) / Fold change /veh MBOAT4 (11741988_at) / RFU 11764193_at / Fold change /veh 11764193_at / RFU TMEM53 (11763286_at) / Fold change /veh TMEM53 (11763286_at) / RFU MAGEB2 (11727129_at) / Fold change /veh MAGEB2 (11727129_at) / RFU TMEM200A (11744735_a_at) / Fold change /veh TMEM200A (11744735_a_at) / RFU CCDC152 (11751479_a_at) / Fold change /veh CCDC152 (11751479_a_at) / RFU FAM211A (11726209_a_at) / Fold change /veh FAM211A (11726209_a_at) / RFU RGS16 (11746705_a_at) / Fold change /veh RGS16 (11746705_a_at) / RFU VCAN (11755009_s_at) / Fold change /veh VCAN (11755009_s_at) / RFU RHOB (11743442_s_at) / Fold change /veh RHOB (11743442_s_at) / RFU RGS16 (11720943_a_at) / Fold change /veh RGS16 (11720943_a_at) / RFU RGS16 (11720944_at) / Fold change /veh RGS16 (11720944_at) / RFU, VPS4B / Fold change vs veh, VPS4B / RFU, CREB1 / Fold change vs veh, CREB1 / RFU, DNAJC13 / Fold change vs veh, DNAJC13 / RFU, GNAQ / Fold change vs veh, GNAQ / RFU, CDK5R1 / Fold change vs veh, CDK5R1 / RFU, ZRANB3 / Fold change vs veh, ZRANB3 / RFU, CUL4A / Fold change vs veh, CUL4A / RFU, CCNY / Fold change vs veh, CCNY / RFU, UFL1 / Fold change vs veh, UFL1 / RFU, COG3 / Fold change vs veh, COG3 / RFU, DIAPH2 / Fold change vs veh, DIAPH2 / RFU, SKA2 / Fold change vs veh, SKA2 / RFU, AFF3 / Fold change vs veh, AFF3 / RFU, LMF1 / Fold change vs veh, LMF1 / RFU, IPO11 / Fold change vs veh, IPO11 / RFU, DFFB / Fold change vs veh, DFFB / RFU, FOXP1 / Fold change vs veh, FOXP1 / RFU, CARD8 / Fold change vs veh, CARD8 / RFU, STRN3 / Fold change vs veh, STRN3 / RFU, ADK / Fold change vs veh, ADK / RFU, RASSF2 / Fold change vs veh, RASSF2 / RFU, WIPF1 / Fold change vs veh, WIPF1 / RFU, LARP1B / Fold change vs veh, LARP1B / RFU, RASA1 / Fold change vs veh, RASA1 / RFU, RB1 / Fold change vs veh, RB1 / RFU, PPFIA1 / Fold change vs veh, PPFIA1 / RFU, MAT2A / Fold change vs veh, MAT2A / RFU, CCT5 / Fold change vs veh, CCT5 / RFU, WDR92 / Fold change vs veh, WDR92 / RFU, CUX1 / Fold change vs veh, CUX1 / RFU, TTC7A / Fold change vs veh, TTC7A / RFU, TMEM135 / Fold change vs veh, TMEM135 / RFU, DEPTOR / Fold change vs veh, DEPTOR / RFU, CPM / Fold change vs veh, CPM / RFU, DNAJB6 / Fold change vs veh, DNAJB6 / RFU, CACNA2D3 / Fold change vs veh, CACNA2D3 / RFU, DTX4 / Fold change vs veh, DTX4 / RFU, TFCP2 / Fold change vs veh, TFCP2 / RFU, GMCL1 /// GMCL1P1 / Fold change vs veh, GMCL1 /// GMCL1P1 / RFU, AEBP2 / Fold change vs veh, AEBP2 / RFU, SNHG1 /// SNORD22 /// SNORD25 /// SNORD26 /// SNORD27 /// SNORD28 /// SNORD29 /// SNORD31 / Fold change vs veh, SNHG1 /// SNORD22 /// SNORD25 /// SNORD26 /// SNORD27 /// SNORD28 /// SNORD29 /// SNORD31 / Fold change (Aza/veh), C12orf56 (ProbeSet 11735607_a_at) / Fold change (ACY-1035/veh), C12orf56 (ProbeSet 11735607_a_at) / Fold change (Aza/veh), FGFR1OP (ProbeSet 11751329_s_at) / Fold change (ACY-1035/veh), FGFR1OP (ProbeSet 11751329_s_at) / Fold change (Aza/veh), VPS36 (ProbeSet 11739960_a_at) / Fold change (ACY-1035/veh), VPS36 (ProbeSet 11739960_a_at) / RFU SYPL1 (11715823_x_at) / Fold change /veh SYPL1 (11715823_x_at) / RFU IGFBP7 (11715501_s_at) / Fold change /veh IGFBP7 (11715501_s_at) / RFU REEP3 (11722064_at) / Fold change /veh REEP3 (11722064_at) / RFU IGLL1 (11728026_x_at) / Fold change /veh IGLL1 (11728026_x_at): dose or concentration left out as unconfirmed
Settings: MV-4-11 cells, 48 hours

Structure (SMILES): Nc1ncn([C@@H]2O[C@H](CO)[C@@H](O)[C@H]2O)c(=O)n1 [azacitidine]
- Fold change /veh KRTAP10-2 (11738614_at): 0.93
